Where two headings read alike, the source gives them in different places.
Key:
Assay type in all cases: in vivo
[1] = system: sedge, umbrella (small-flower umbrella sedge, Cyperus difformis); assay: Test B flooded paddy test; conditions: Cyperus difformis, 360 h, Flood, 250 g ai/ha; visually evaluated after 13 to 15 d; read-out: Plant response rating, Sedge, Umbrella (0 to 100 scale where 0 is no effect and 100 is complete control)
Method in brief: (§1)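 Greenhouse paddy pots with 2-leaf stage plants received compound by direct addition to floodwater 3 cm deep, kept at that level. Scored visually at 13–15 d versus controls (0 no effect; 100 complete control).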

rice (Oryra sativa) = assay: Test B flooded paddy test; conditions: Oryza sativa, 250 g ai/ha, Flood
Method in brief: as §1

[2] = system: barnyardgrass (Echinochloa crus-galli); assay: Test B flooded paddy test; conditions: Echinochloa crus-galli, 250 g ai/ha, Flood
Method in brief: as §1

[3] = system: ducksalad (Heteranthera limosa); assay: Test B flooded paddy test; conditions: Heteranthera limosa, 250 g ai/ha, Flood
Method in brief: as §1

[4] = system: ragweed (common ragweed, Ambrosia elatior); assay: Test A preemergence; conditions: Ambrosia artemisiifolia, pre-emergence, 240 h; for pest or weed control at 500 g/ha: 500 g ai/ha, preemergence; for pest or weed control at 125 g/ha: Preemergence, 125 g ai/ha
Method in brief: (§2)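 Greenhouse, ~10 d after spray; visual injury vs untreated controls, 0 = no effect, 100 = complete control. Preemergence: directed soil spray over planted seeds. Postemergence: plants 2–10 cm, 1–2 leaf stage. Loam/sand blend. Compound in non-phytotoxic solvent with surfactant.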

[5] = system: ryegrass, Italian (Italian ryegrass, Lolium multiflorum); assay: Test A preemergence; conditions: Lolium multiflorum, pre-emergence, 240 h, 0 to 100 scale (0 no effect, 100 complete control), read-out: Plant response rating, Ryegrass, Italian; for pest or weed control at 125 g/ha: Preemergence, 125 g ai/ha; for pest or weed control at 500 g/ha: 500 g ai/ha, preemergence
Method in brief: as §2

[6] = system: pigweed (Amaranthus retroflexus); assay: Test A preemergence; conditions: Amaranthus retroflexus, pre-emergence, 240 h; for pest or weed control at 500 g/ha: 500 g ai/ha, preemergence; for pest or weed control at 125 g/ha: Preemergence, 125 g ai/ha
[7] = system: barnyardgrass (Echinochloa crus-galli); assay: Test A preemergence; conditions: Echinochloa crus-galli, pre-emergence, 240 h; for pest or weed control at 500 g/ha: 500 g ai/ha, preemergence; for pest or weed control at 125 g/ha: Preemergence, 125 g ai/ha
Method in brief: as §2

Kochia (Kochia scoparia) = assay: Test A preemergence; conditions: Bassia scoparia, pre-emergence, 240 h; for pest or weed control at 500 g/ha: 500 g ai/ha, preemergence; for pest or weed control at 125 g/ha: Preemergence, 125 g ai/ha
Method in brief: as §2

[8] = system: giant foxtail (Setaria faberii); assay: Test A preemergence; conditions: Setaria faberi, pre-emergence, 240 h; for pest or weed control at 500 g/ha: 500 g ai/ha, preemergence; for pest or weed control at 125 g/ha: Preemergence, 125 g ai/ha
Method in brief: as §2

[9] = system: wheat (Triticum aestivum); assay: Test A postemergence; conditions: Triticum aestivum, post-emergence, 240 h, Postemergence; for plant injury at 125 g/ha: 125 g ai/ha, visual rating about 10 d after treatment, read-out: Wheat plant response rating (0 to 100 scale); for plant injury at 500 g/ha: 500 g ai/ha, visual injury, 0 to 100 scale (0 no effect, 100 complete control), approx. 10 d, read-out: Plant response rating, Wheat
Method in brief: as §2

[10] = system: Galium (catchweed bedstraw, Galium aparine); assay: Test A postemergence; conditions: Galium, post-emergence, 240 h, Postemergence; for pest or weed control at 125 g/ha: 125 g ai/ha, visual rating about 10 d after treatment, read-out: Galium plant response rating (0 to 100 scale); for pest or weed control at 500 g/ha: 500 g ai/ha, visual injury, 0 to 100 scale (0 no effect, 100 complete control), approx. 10 d, read-out: Plant response rating, Galium
Method in brief: as §2

[11] = system: barnyardgrass (Echinochloa crus-galli); assay: Test A postemergence; conditions: Echinochloa crus-galli, post-emergence, 240 h, Postemergence; for pest or weed control at 125 g/ha: 125 g ai/ha, visual rating about 10 d after treatment, read-out: Barnyardgrass plant response rating (0 to 100 scale, 0 no effect, 100 complete control); for pest or weed control at 500 g/ha: 500 g ai/ha, visual injury, 0 to 100 scale (0 no effect, 100 complete control), approx. 10 d, read-out: Plant response rating, Barnyardgrass
Method in brief: as §2

[12] = system: giant foxtail (Setaria faberii); assay: Test A postemergence; conditions: Setaria faberi, post-emergence, 240 h, Postemergence; for pest or weed control at 125 g/ha: 125 g ai/ha, visual rating about 10 d after treatment, read-out: Foxtail, Giant plant response rating (0 to 100 scale); for pest or weed control at 500 g/ha: 500 g ai/ha, visual injury, 0 to 100 scale (0 no effect, 100 complete control), approx. 10 d, read-out: Plant response rating, Foxtail, Giant
Method in brief: as §2

[13] = 0 to 100 scale where 0 is no effect and 100 is complete control, read-out: Rice plant response rating
[14] = 0 to 100 scale where 0 is no effect and 100 is complete control, read-out: Barnyardgrass plant response rating
[15] = 0 to 100 scale where 0 is no effect and 100 is complete control, read-out: Ducksalad plant response rating
[16] = 0 to 100 scale where 0 is no effect and 100 is complete control, read-out: Ragweed plant response rating
[17] = 0 to 100 scale (0 no effect, 100 complete control), read-out: Plant response rating, Ragweed
[18] = 0 to 100 scale where 0 is no effect and 100 is complete control, read-out: Pigweed plant response rating
[19] = 0 to 100 scale (0 no effect, 100 complete control), read-out: Plant response rating, Pigweed
[20] = 0 to 100 scale (0 no effect, 100 complete control), read-out: Plant response rating, Barnyardgrass
[21] = 0 to 100 scale where 0 is no effect and 100 is complete control, read-out: Kochia plant response rating
[22] = 0 to 100 scale (0 no effect, 100 complete control), read-out: Plant response rating, Kochia
[23] = 0 to 100 scale where 0 is no effect and 100 is complete control, read-out: Foxtail, Giant plant response rating
[24] = 0 to 100 scale (0 no effect, 100 complete control), read-out: Plant response rating, Foxtail, Giant

Row | SMILES | pest or weed control at 250 g/ha [1] [%] | pest or weed control at 250 g/ha (rice (Oryra sativa); [13]) [%] | pest or weed control at 250 g/ha [2, 14] [%] | pest or weed control at 250 g/ha [3, 15] [%] | pest or weed control at 500 g/ha [4, 16] [%] | pest or weed control at 125 g/ha [4, 17] [%] | pest or weed control at 125 g/ha [5] [%] | pest or weed control at 500 g/ha [6, 18] [%] | pest or weed control at 125 g/ha [6, 19] [%] | pest or weed control at 125 g/ha [7, 20] [%] | pest or weed control at 125 g/ha (Kochia (Kochia scoparia); [22]) [%] | pest or weed control at 125 g/ha [8, 24] [%] | plant injury at 125 g/ha [9] [%] | plant injury at 500 g/ha [9] [%] | pest or weed control at 125 g/ha [10] [%] | pest or weed control at 500 g/ha [10] [%] | pest or weed control at 125 g/ha [11] [%] | pest or weed control at 500 g/ha [11] [%] | pest or weed control at 125 g/ha [12] [%] | pest or weed control at 500 g/ha [12] [%] | also measured
1 | CN1C[C@H](c2cccc(C(C)(F)F)c2)[C@@H](C(=O)Nc2ccccc2S(C)(=O)=O)C1=O [Compound 1318] | 0 | 0 | 65 | 85 | 90 | 0 | 40 | 80 | 70 | 90 | 70 | 90 | 50 | 80 | 60 | 60 | 80 | 90 | 90 | 90 | pest or weed control at 500 g/ha [7, 14]: 90%; pest or weed control at 500 g/ha (Kochia (Kochia scoparia); [21]): 80%; pest or weed control at 500 g/ha [8, 23]: 90%
2 | CS(=O)(=O)c1ccccc1NC(=O)[C@H]1C(=O)NC[C@@H]1c1ccc2c(c1)CCO2 [Compound 1320] | 0 | 0 | 0 | 50 | 0 | 0 | 0 | 0 | 0 | 0 | 0 | 0 | 0 | 0 | 30 | 40 | 0 | 50 | 0 | 20 | pest or weed control at 500 g/ha [7, 14]: 60%; pest or weed control at 500 g/ha (Kochia (Kochia scoparia); [21]): 60%; pest or weed control at 500 g/ha [8, 23]: 80%
3 | CN1C[C@H](c2ccc3c(c2)CCO3)[C@@H](C(=O)Nc2ccc(F)c(F)c2F)C1=O [Compound 1323] | 0 | 10 | 90 | 85 | 70 | 0 | 20 | 40 | 0 | 90 | 80 | 90 | 50 | 70 | 50 | 60 | 90 | 90 | 90 | 90 | pest or weed control at 500 g/ha [7, 14]: 90%; pest or weed control at 500 g/ha (Kochia (Kochia scoparia); [21]): 90%; pest or weed control at 500 g/ha [8, 23]: 90%
4 | Cc1c(F)ccc([C@H]2CNC(=O)[C@@H]2C(=O)Nc2cccc(F)c2F)c1F [Compound 1327] | 0 | 0 | 30 | 100 | – | 0 | 20 | – | 0 | 90 | 100 | 70 | 0 | 0 | 30 | 50 | 90 | 90 | 20 | 70 | pest or weed control at 500 g/ha [4, 17]: 0%; pest or weed control at 500 g/ha [5]: 20%; pest or weed control at 500 g/ha [6, 19]: 30%; pest or weed control at 500 g/ha [7, 20]: 90%; pest or weed control at 500 g/ha (Kochia (Kochia scoparia); [22]): 90%; pest or weed control at 500 g/ha [8, 24]: 90%
5 | Cc1c(F)ccc([C@H]2CNC(=O)[C@@H]2C(=O)Nc2ccc(F)cc2F)c1F [Compound 1328] | 0 | – | – | – | – | 0 | 0 | – | 0 | 70 | 30 | 50 | 0 | 0 | 0 | 30 | 60 | 90 | 0 | 40 | pest or weed control at 250 g/ha (rice (Oryra sativa); 360 h, visually evaluated after 13 to 15 d, read-out: Plant response rating, Rice (0 to 100 scale where 0 is no effect and 100 is complete control)): 0%; pest or weed control at 250 g/ha ([2]; 360 h, visually evaluated after 13 to 15 d, read-out: Plant response rating, Barnyardgrass (0 to 100 scale where 0 is no effect and 100 is complete control)): 0%; pest or weed control at 250 g/ha ([3]; 360 h, visually evaluated after 13 to 15 d, read-out: Plant response rating, Ducksalad (0 to 100 scale where 0 is no effect and 100 is complete control)): 50%; pest or weed control at 500 g/ha [4, 17]: 0%; pest or weed control at 500 g/ha [5]: 30%; pest or weed control at 500 g/ha [6, 19]: 0%; pest or weed control at 500 g/ha [7, 20]: 90%; pest or weed control at 500 g/ha (Kochia (Kochia scoparia); [22]): 50%; pest or weed control at 500 g/ha [8, 24]: 90%
